Where two headings read alike, the source gives them in different places.
Target: T1, hM5 (Homo sapiens, UniProt P08912)
T1 construct: expressed in transfected cells
T1 sequence (P08912 1-532): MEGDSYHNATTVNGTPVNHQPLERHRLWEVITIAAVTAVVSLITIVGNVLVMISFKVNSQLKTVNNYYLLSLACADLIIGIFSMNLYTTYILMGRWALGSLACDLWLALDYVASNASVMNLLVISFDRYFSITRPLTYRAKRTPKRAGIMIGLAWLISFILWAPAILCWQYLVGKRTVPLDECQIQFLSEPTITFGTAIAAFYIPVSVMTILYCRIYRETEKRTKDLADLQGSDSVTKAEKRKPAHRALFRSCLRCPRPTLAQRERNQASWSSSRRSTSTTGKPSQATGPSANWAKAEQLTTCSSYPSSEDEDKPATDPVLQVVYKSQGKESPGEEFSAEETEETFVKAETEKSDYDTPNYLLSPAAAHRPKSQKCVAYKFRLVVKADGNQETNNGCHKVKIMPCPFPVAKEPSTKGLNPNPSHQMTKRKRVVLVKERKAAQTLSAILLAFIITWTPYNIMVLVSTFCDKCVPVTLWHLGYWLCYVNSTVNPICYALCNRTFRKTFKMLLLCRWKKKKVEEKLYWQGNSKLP
Assay: Calcium mobilization concentration-response (IC50 vs EC80 acetylcholine), CHO hM5
Format: cell-based
Experimental: Initial, single point (10 μM) compound characterization was performed in stable Chinese Hamster Ovary (CHO) cell lines constitutively expressing human M5 receptors. These were plated at 15,000 cells per 20 μL per well in Greiner 384-well black-walled, TC-treated, clear-bottomed plates (Fisher) in Ham's F12 medium supplemented with 10% FBS and 20 mM HEPES. Cells were incubated overnight at 37° C. under 5% CO2. The following day, medium was exchanged with assay buffer (Hank's Balanced Salt Solution supplemented with 20 mM HEPES and 2.5 mM Probenecid, pH 7.4) leaving 20 μL of assay buffer in each well. […] The cells were then incubated 50 minutes at 37° C. under 5% CO2. The assay buffer plus dye was then exchanged with fresh assay buffer leaving a volume of 20 μL in each well. Test compounds were diluted into assay buffer to a 2X (20 μM) concentration in 0.2% dimethylsulfoxide (DMSO) in columns 3-22 with matching DMSO concentration in columns 1, 2, 23, and […]; compounds were added to the assay for a final concentration of 10 μM and a final DMSO concentration of 0.1%.
Either an FDSS (Hamamatsu) or Panoptic (WaveFront Biosciences) kinetic imaging plate reader was used for assay execution and measurement of calcium flux. After establishing baseline fluorescence, test compounds (20 μL) were added to the cells using the reader's integrated pipettor and allowed to equilibrate for 140 seconds before addition of the […] concentration of acetylcholine (10 μL) along with vehicle in selected DMSO-only wells in the outer two columns . […] The raw fluorescence data from each well was normalized to the corresponding initial fluorescence reading (static ratio). The maximum fluorescence value following each addition was determined and the minimum value within that same timeframe was subtracted for each well then normalized to the average of the ECffiax maximum-minimum response, providing a % AChmax value for each addition for each well. The single point values represent mean values determined within the ECsu addition timeframe obtained from at least three independent determinations performed in triplicate or greater (error bars represent +/−SEM) unless otherwise specified.
CHO cells stably expressing hM1, hM2/Gqi5, hM3, hM4/Gqi5, hM5, rM1/Gqi5, rM3, rM4/Gqi5, or rM5 were plated in the manner described above. […] FDSS protocols were carried out as described above; the static ratio was calculated and the minimum response subtracted from the maximum response within the timeframe of each addition. This max-min response was then normalized to the maximum acetylcholine response. Calculation of IC50 was performed using the percent maximum acetylcholine response for the EC80 addition through the Vortex and Studies modules of the Dotmatics data management software. Results are stored in the Dotrnatics database and an audit trail of any changes to their analysis is generated. Data shown represent mean values obtained from at least three independent determinations performed in triplicate or greater (error bars represent±SEM) unless otherwise specified.

[1] = CELL LINE hM5, vs EC80 acetylcholine, read-out: IC50
[2] = CELL LINE hM5, calcium mobilization, EC80 acetylcholine addition, read-out: IC50

SMILES	IC50 [1] [nM]	IC50 [2] [nM]	further results
Cc1cc2ncnn2cc1C1CCN(S(=O)(=O)c2ccc3c(c2)ncn3C)CC1 [Compound 189, 7-methyl-6-(1-((1-methyl-1H-benzo[d]imidazol-5-yl)sulfonyl)piperidin-4-yl)-[1,2,4]triazolo[1,5-a]pyridine]		> 10000	
O=S(=O)(c1cnn2c1CCCC2)N1CCC(c2ccncc2)CC1 [Compound 368, 3-((4-(pyridin-4-yl)piperidin-1-yl)sulfonyl)-4,5,6,7-tetrahydropyrazolo[1,5-a]pyridine]		> 10000	
O=S(=O)(c1ccc2c(c1)CCO2)N1CCC(c2nc3ccccc3[nH]2)CC1 [Compound 3, 2-(1-((2,3-dihydrobenzofuran-5-yl)sulfonyl)piperidin-4-yl)-1H-benzo[d]imidazole]		> 10000	
O=S(=O)(c1ccc2c(c1)CCO2)N1CCC(c2nccs2)CC1 [Compound 98, 2-(1-((2,3-dihydrobenzofuran-5-yl)sulfonyl)piperidin-4-yl)thiazole]		> 10000	
Cn1ncc(S(=O)(=O)N2CCC(c3cn4ncnc4cc3Cl)CC2)c1C(F)F [Compound 295, 7-chloro-6-(1-((5-(difluoromethyl)-1-methyl-1H-pyrazol-4-yl)sulfonyl)piperidin-4-yl)-[1,2,4]triazolo[1,5-a]pyridine]		19	
Cc1c(S(=O)(=O)N2CCC(c3cn4ncnc4cc3F)CC2)c(Cl)nn1C [Compound 329, 6-(1-((3-chloro-1,5-dimethyl-1H-pyrazol-4-yl)sulfonyl)piperidin-4-yl)-7-fluoro-[1,2,4]triazolo[1,5-a]pyridine]		87	
Cc1cc2nccn2nc1C1CCN(S(=O)(=O)c2cnn(C(F)F)c2C)CC1 [Compound 312, 6-(1-((1-(difluoromethyl)-5-methyl-1H-pyrazol-4-yl)sulfonyl)piperidin-4-yl)-7-methylimidazo[1,2-b]pyridazine]		877	
Cc1c(S(=O)(=O)N2CC=C(c3cc4c(cc3Cl)OCO4)CC2)cnn1C [Compound 350, 4-(6-chlorobenzo[d][1,3]dioxol-5-yl)-1-((1,5-dimethyl-1H-pyrazol-4-yl)sulfonyl)-1,2,3,6-tetrahydropyridine]		11	
Cc1cc2ncnn2nc1C1CCN(S(=O)(=O)c2cn(C)nc2C)CC1 [Compound 182, 6-(1-((1,3-dimethyl-1H-pyrazol-4-yl)sulfonyl)piperidin-4-yl)-7-methyl-[1,2,4]triazolo[1,5-b]pyridazine]		> 10000	
Cc1cc2ncnn2cc1C1CC2CCC(C1)N2S(=O)(=O)c1cnn2c1CCC2 (centres unmarked) [Compound 193, 6-(8-((5,6-dihydro-4H-pyrrolo[1,2-b]pyrazol-3-yl)sulfonyl)-8-azabicyclo[3.2.1]octan-3-yl)-7-methyl-[1,2,4]triazolo[1,5-a]pyridine]			IC50: 1600 nM
[2H]C([2H])([2H])n1nc(Cl)c(S(=O)(=O)N2CCC(c3cn4ncnc4cc3F)CC2)c1C [Compound 257, 6-(1-((3-chloro-5-methyl-1-(methyl-d3)-1H-pyrazol-4-yl)sulfonyl)piperidin-4-yl)-7-fluoro-[1,2,4]triazolo[1,5-a]pyridine]		89	
[2H]C([2H])([2H])n1cc(S(=O)(=O)N2CCC(c3cn4ncnc4cc3F)CC2)c(Cl)n1 [Compound 259, 6-(1-((3-chloro-1-(methyl-d3)-1H-pyrazol-4-yl)sulfonyl)piperidin-4-yl)-7-fluoro-[1,2,4]triazolo[1,5-a]pyridine]		3000	
Cc1ncc(S(=O)(=O)N2CCC(c3nn4ncnc4cc3C)CC2)s1 [Compound 214, 2-methyl-5-((4-(7-methyl-[1,2,4]triazolo[1,5-b]pyridazin-6-yl)piperidin-1-yl)sulfonyl)thiazole]		> 10000	
Cc1cc(C(F)(F)F)ncc1C1CCN(S(=O)(=O)c2cnn(C)c2Cl)CC1 [Compound 395, 5-(1-((5-chloro-1-methyl-1H-pyrazol-4-yl)sulfonyl)piperidin-4-yl)-4-methyl-2-(triflu0romethyl)pyridine]		1290	
Cc1cc2ncnn2cc1C1CCN(S(=O)(=O)c2cnc3n2CCCC3)CC1 [Compound 322, 7-methyl-6-(1-((5,6,7,8-tetrahydroimidazo[1,2-a]pyridin-3-yl)sulfonyl)piperidin-4-yl)-[1,2,4]triazolo[1,5-a]pyridine]		9.8	

More lines, main results first:

IC50 [1] [nM]	IC50 [2] [nM]	SMILES	further results
162		Cc1c(C2CCN(S(=O)(=O)c3cnn(C)c3CC#N)CC2)cn2ncnc2c1F [Compound 439, 2-(4-((4-(8-fluoro-7-methyl-[1,2,4]triazolo[1,5-a]pyridin-6-yl)piperidin-1-yl)sulfonyl)-1-methyl-1H-pyrazol-5-yl)acetonitrile]	
275		Cc1nc2n(c1C1CCN(S(=O)(=O)c3cnn(C)c3C)CC1)CCCC2 [Compound 464, 3-(1-((1,5-dimethyl-1H-pyrazol-4-yl)sulfonyl)piperidin-4-yl)-2-methyl-5,6,7,8-tetrahydroimidazo[1,2-a]pyridine]	
> 10000		Cn1ncc(S(=O)(=O)N2CCC(c3cn4ncnc4cc3F)CC2)c1CN [Compound 530, (4-((4-(7-fluoro-[1,2,4]triazolo[1,5-a]pyridin-6-yl)piperidin-1-yl)sulfonyl)-1-methyl-1H-pyrazol-5-yl)methanamine]	
150		CCc1cc2ncnn2cc1C1CCN(S(=O)(=O)c2cnn3ccccc23)CC1 [Compound 509, 7-ethyl-6-(1-(pyrazolo[1,5-a]pyridin-3-ylsulfonyl)piperidin-4-yl)-[1,2,4]triazolo[1,5-a]pyridine]	
268		CO[C@@H]1CN(S(=O)(=O)c2cnn(C)c2Cl)CC[C@H]1c1cn2ncnc2cc1C (racemic) [Compound 413, (rac)-6-(trans-1-((5-chloro-1-methyl-1H-pyrazol-4-yl)sulfonyl)-3-methoxypiperidin-4-yl)-7-methyl-[1,2,4]triazolo[1,5-a]pyridine]	
2070		Cc1ncc(S(=O)(=O)N2CCC(c3cn4ccnc4cc3C)CC2)s1 [Compound 583, 2-methyl-5-((4-(7-methylimidazo[1,2-a]pyridin-6-yl)piperidin-1-yl)sulfonyl)thiazole]	
6		COc1c(S(=O)(=O)N2CCC(c3cn4ncnc4cc3Cl)CC2)cnn1C [Compound 575, 7-chloro-6-(1-((5-methoxy-1-methyl-1H-pyrazol-4-yl)sulfonyl)piperidin-4-yl)-[1,2,4]triazolo[1,5-a]pyridine]	
4510		Cc1cc2ncnn2cc1C1CCN(S(=O)(=O)c2conc2C)CC1 [Compound 499, 3-methyl-4-((4-(7-methyl-[1,2,4]triazolo[1,5-a]pyridin-6-yl)piperidin-1-yl)sulfonyl)isoxazole]	
6920		Cc1nc2n(c1C1CCN(S(=O)(=O)c3cnn(C)c3C(F)F)CC1)CCCC2 [Compound 465, 3-(1-((5-(difluoromethyl)-1-methyl-1H-pyrazol-4-yl)sulfonyl)piperidin-4-yl)-2-methyl-5,6,7,8-tetrahydroimidazo[1,2-a]pyridine]	
295		Cc1cc(S(=O)(=O)N2CCC(c3cn4ncnc4cc3F)CC2)sn1 [Compound 500, 5-((4-(7-fluoro-[1,2,4]triazolo[1,5-a]pyridin-6-yl)piperidin-1-yl)sulfonyl)-3-methylisothiazole]	
27		COc1c(S(=O)(=O)N2CCC(c3cn4ncnc4cc3Cl)CC2)c(I)nn1C (single isomer, unassigned) [Compound 625, 7-Chloro-6-(1-((3-iodo-5-methoxy-1-methyl-1H-pyrazol-4-yl)sulfonyl)piperidin4-yl)-[1,2,4]triazolo[1,5-a]pyridine]	
